Source: US4359458A, “O-β. -D (and O-α.. -D) Multigalactopyranosyl, xylopyranosyl and glucopyranosyl sulfate salts” (American Cyanamid Company, priority 1981, dated 1982)
Counter-ions that a name gives are not always drawn. Like-named read-outs stand apart in the source and are kept apart here.

Legend:
[1] = tested on: complement system; settings: Br. J. Exp. Pathol. 33: 327 (1952); cited from earlier work
[2] = molecular target: activated human C1 (Homo sapiens, UniProt P09871); experiment: Test Code 026 (C1 inhibitor); assay type: biochemical; settings: serial dilution assay, twofold dilutions; higher well number indicates higher activity
From the text: (§1) An active inhibitor protects C2 from C1 and C4; (ii) Test Code 035 (C3-C9 inhibitor)--This test determines the ability of the late components of human complement (C3-C9) to lyse EAC 142 in the presence of appropriate dilutions of the test compound. An active inhibitor protects EAC 142 from lysis by human C3-C9; (iii) Test Code 036 (C-Shunt inhibitor)--In this test human erythrocytes rendered fragile are lysed in autologous serum via the shunt pathway activated by cobra venom factor in the presence of appropriate dilutions of the test compound. Inhibition of the shunt pathway results in failure of lysis; (iv) Cap 50 Test--Here, appropriate amounts of the test compound are added to a pool of guinea pig serum in vitro, after which the undiluted serum capillary tube assay of U.S. Pat. No. 3,876,376 is run. The concentration of compound inhibiting 50% is reported; and (v) Guinea Pig Intraperitoneal Test (GPIP)--Guinea pigs weighing about 300 g are dosed intraperitoneally (i.p.) with 200 mg/kg of the test compound dissolved in saline and adjusted to pH 7-8. Approximately 0.4 ml blood samples, taken by orbital sinus puncture 30 minutes and one hour after injections, are collected directly into centrifuge tubes; 5 ml blood samples, taken by decapitation 2 hours after injection are collected directly into beakers. The samples are allowed to clot, centrifuged, and the resultant sera are assayed for complement activity using the capillary complement assay. Percent inhibition is calculated by comparison with simultaneous controls. The results of the GPIP appear in Table I together with results of test code 026, 035, 036 and Cap 50.

[3] = tested on: shunt pathway activated by cobra venom factor; experiment: Test Code 036 (C-Shunt inhibitor); assay type: cell-based, human; settings: serial dilution assay, twofold dilutions; higher well number indicates higher activity; N = Negative
From the text: as §1

[4] = tested on: complement activity; experiment: Guinea Pig Intraperitoneal Test (GPIP); assay type: in vivo; settings: Cavia porcellus, ip, 200 mg/kg i.p.
From the text: as §1

[5] = tested on: late components of human complement (C3-C9); experiment: Test Code 035 (C3-C9 inhibitor); assay type: biochemical; settings: serial dilution assay, twofold dilutions; higher well number indicates higher activity; N = Negative
From the text: as §1

[6] = tested on: hereditary angioneurotic edema; settings: literature reports; cited from earlier work
[7] = tested on: total hemolytic complement activity; settings: both in vitro and in vivo; judged by reduction in total hemolytic complement activity; cited from earlier work

Row | Compound | Cl 026 Wells [2] [Wells] | C-Shunt Inhibition 036 Wells [3] [Wells] | C-Late 035 Wells [5] | other results
1 | Nc1ccc2cc(S(=O)(=O)O)cc(O)c2c1N=Nc1ccc(NC(=O)Nc2ccc(N=Nc3c(N)ccc4cc(S(=O)(=O)O)cc(O)c34)c(S(=O)(=O)O)c2)cc1S(=O)(=O)O [chlorazol fast pink, 3,3'-ureylenebis [6-(2-amino-8-hydroxy-6-sulfo-1-naphthylazo)benzenesulfonic acid], tetrasodium salt] |  |  |  | anti-complementary effect [1]: anti-complementary effect
2 | O=S(=O)(O)O[C@@H]1[C@@H](OS(=O)(=O)O)[C@@H](O[C@H]2O[C@H](CO[C@@H]3OC[C@@H](OS(=O)(=O)O)[C@H](OS(=O)(=O)O)[C@H]3OS(=O)(=O)O)[C@@H](OS(=O)(=O)O)[C@H](OS(=O)(=O)O)[C@H]2OS(=O)(=O)O)O[C@H](CO[C@@H]2OC[C@@H](OS(=O)(=O)O)[C@H](OS(=O)(=O)O)[C@H]2OS(=O)(=O)O)[C@H]1OS(=O)(=O)O [drawing 14, Xyl 1β,6 glc 1α,1α' glc 1β,6 xyl, dodecakis (H-sulfate), dodecasodium salt] | 11 | 4 |  | inhibition at 200 mg/kg ([4]; 0.5 h, serum 30 minutes after injection, read-out: In vivo activity (Guinea Pigs) % Inhibition Intraperitoneal, 30 minutes): 57%; inhibition at 200 mg/kg ([4]; 1 h, serum 60 minutes after injection, read-out: In vivo activity (Guinea Pigs) % Inhibition Intraperitoneal, 60 minutes): 69%; inhibition at 200 mg/kg ([4]; 2 h, serum 120 minutes after injection, read-out: In vivo activity (Guinea Pigs) % Inhibition Intraperitoneal, 120 minutes): 78%
3 | O=S(=O)(O)OC[C@H]1O[C@@H](OC[C@H]2O[C@H](O[C@H]3O[C@H](CO[C@@H]4O[C@H](COS(=O)(=O)O)[C@@H](O[C@H]5O[C@H](COS(=O)(=O)O)[C@@H](O[C@H]6O[C@H](COS(=O)(=O)O)[C@@H](O[C@H]7O[C@H](COS(=O)(=O)O)[C@@H](O[C@H]8O[C@H](COS(=O)(=O)O)[C@@H](O[C@H]9O[C@H](COS(=O)(=O)O)[C@@H](O[C@H]%10O[C@H](COS(=O)(=O)O)[C@@H](OS(=O)(=O)O)[C@H](OS(=O)(=O)O)[C@H]%10OS(=O)(=O)O)[C@H](OS(=O)(=O)O)[C@H]9OS(=O)(=O)O)[C@H](OS(=O)(=O)O)[C@H]8OS(=O)(=O)O)[C@H](OS(=O)(=O)O)[C@H]7OS(=O)(=O)O)[C@H](OS(=O)(=O)O)[C@H]6OS(=O)(=O)O)[C@H](OS(=O)(=O)O)[C@H]5OS(=O)(=O)O)[C@H](OS(=O)(=O)O)[C@H]4OS(=O)(=O)O)[C@@H](OS(=O)(=O)O)[C@H](OS(=O)(=O)O)[C@H]3OS(=O)(=O)O)[C@H](OS(=O)(=O)O)[C@@H](OS(=O)(=O)O)[C@@H]2OS(=O)(=O)O)[C@H](OS(=O)(=O)O)[C@@H](OS(=O)(=O)O)[C@@H]1O[C@H]1O[C@H](COS(=O)(=O)O)[C@@H](O[C@H]2O[C@H](COS(=O)(=O)O)[C@@H](O[C@H]3O[C@H](COS(=O)(=O)O)[C@@H](O[C@H]4O[C@H](COS(=O)(=O)O)[C@@H](O[C@H]5O[C@H](COS(=O)(=O)O)[C@@H](O[C@H]6O[C@H](COS(=O)(=O)O)[C@@H](OS(=O)(=O)O)[C@H](OS(=O)(=O)O)[C@H]6OS(=O)(=O)O)[C@H](OS(=O)(=O)O)[C@H]5OS(=O)(=O)O)[C@H](OS(=O)(=O)O)[C@H]4OS(=O)(=O)O)[C@H](OS(=O)(=O)O)[C@H]3OS(=O)(=O)O)[C@H](OS(=O)(=O)O)[C@H]2OS(=O)(=O)O)[C@H](OS(=O)(=O)O)[C@H]1OS(=O)(=O)O [drawing 23, Glc 1α,4 (glc 1α,4)5 glc 1β,6 glc 1α,1α'glc 1β,6 glc (glc 1α,4)5 1α,4 glc, pentacontakis (H-sulfate), pentacontasodium salt] | 9 | 6 | 2 Wells | 
4 | O=S(=O)(O)OC[C@H]1O[C@@H](OC[C@H]2O[C@H](O[C@H]3O[C@H](COS(=O)(=O)O)[C@@H](OS(=O)(=O)O)[C@H](OS(=O)(=O)O)[C@H]3OS(=O)(=O)O)[C@H](OS(=O)(=O)O)[C@@H](OS(=O)(=O)O)[C@@H]2OS(=O)(=O)O)[C@H](OS(=O)(=O)O)[C@@H](OS(=O)(=O)O)[C@@H]1O[C@H]1O[C@H](COS(=O)(=O)O)[C@@H](O[C@H]2O[C@H](COS(=O)(=O)O)[C@@H](O[C@H]3O[C@H](COS(=O)(=O)O)[C@@H](O[C@H]4O[C@H](COS(=O)(=O)O)[C@@H](O[C@H]5O[C@H](COS(=O)(=O)O)[C@@H](O[C@H]6O[C@H](COS(=O)(=O)O)[C@@H](OS(=O)(=O)O)[C@H](OS(=O)(=O)O)[C@H]6OS(=O)(=O)O)[C@H](OS(=O)(=O)O)[C@H]5OS(=O)(=O)O)[C@H](OS(=O)(=O)O)[C@H]4OS(=O)(=O)O)[C@H](OS(=O)(=O)O)[C@H]3OS(=O)(=O)O)[C@H](OS(=O)(=O)O)[C@H]2OS(=O)(=O)O)[C@H](OS(=O)(=O)O)[C@H]1OS(=O)(=O)O [drawing 25, Glc 1α,4 (glc 1α,4)5 glc 1β,6 glc 1α,1α'glc, nonacosakis (H-sulfate), nonacosasalt with trimethylamine] | 9 | 5 | N | 
5 | O=S(=O)(O)OC[C@H]1O[C@@H](OC[C@H]2O[C@H](O[C@H]3O[C@H](COS(=O)(=O)O)[C@@H](OS(=O)(=O)O)[C@H](OS(=O)(=O)O)[C@H]3OS(=O)(=O)O)[C@H](OS(=O)(=O)O)[C@@H](OS(=O)(=O)O)[C@@H]2OS(=O)(=O)O)[C@H](OS(=O)(=O)O)[C@@H](OS(=O)(=O)O)[C@@H]1O[C@H]1O[C@H](COS(=O)(=O)O)[C@@H](O[C@H]2O[C@H](COS(=O)(=O)O)[C@@H](O[C@H]3O[C@H](COS(=O)(=O)O)[C@@H](O[C@H]4O[C@H](COS(=O)(=O)O)[C@@H](O[C@H]5O[C@H](COS(=O)(=O)O)[C@@H](O[C@H]6O[C@H](COS(=O)(=O)O)[C@@H](OS(=O)(=O)O)[C@H](OS(=O)(=O)O)[C@H]6OS(=O)(=O)O)[C@H](OS(=O)(=O)O)[C@H]5OS(=O)(=O)O)[C@H](OS(=O)(=O)O)[C@H]4OS(=O)(=O)O)[C@H](OS(=O)(=O)O)[C@H]3OS(=O)(=O)O)[C@H](OS(=O)(=O)O)[C@H]2OS(=O)(=O)O)[C@H](OS(=O)(=O)O)[C@H]1OS(=O)(=O)O [drawing 26, glc 1α,4 (glc 1α,4)5 glc 1β,6 glc 1α,1α'glc, nonacosakis (H-sulfate), nonacosasodium salt] | 10 | 6 | 1 Wells | 
6 | NCCCCCC(=O)O [epsilon-aminocaproic acid] |  |  |  | treatment of hereditary angioneurotic edema [6]: used with success
7 | NC[C@H]1CC[C@H](C(=O)O)CC1 [tranexamic acid] |  |  |  | treatment of hereditary angioneurotic edema [6]: used with success
8 | heparin |  |  |  | anti-complementary effect [1]: anti-complementary effect
9 | pentosanpolysulfoester |  |  |  | anticomplementary activity on human serum [7]: anticomplementary activity
